From BindingDB's records for doi:10.1021/jm970079r (Virginia Polytechnic Institute and State University, 1997)

Legend:
[1] = target: T1, Amine oxidase [flavin-containing] A (Homo sapiens, UniProt P21397); assay: Tested for inhibition- binding affinity against monoamine oxidase A catalyzed oxidation.; conditions: read-out: kon (M-1-s-1)
T1 sequence (P21397 whole entry): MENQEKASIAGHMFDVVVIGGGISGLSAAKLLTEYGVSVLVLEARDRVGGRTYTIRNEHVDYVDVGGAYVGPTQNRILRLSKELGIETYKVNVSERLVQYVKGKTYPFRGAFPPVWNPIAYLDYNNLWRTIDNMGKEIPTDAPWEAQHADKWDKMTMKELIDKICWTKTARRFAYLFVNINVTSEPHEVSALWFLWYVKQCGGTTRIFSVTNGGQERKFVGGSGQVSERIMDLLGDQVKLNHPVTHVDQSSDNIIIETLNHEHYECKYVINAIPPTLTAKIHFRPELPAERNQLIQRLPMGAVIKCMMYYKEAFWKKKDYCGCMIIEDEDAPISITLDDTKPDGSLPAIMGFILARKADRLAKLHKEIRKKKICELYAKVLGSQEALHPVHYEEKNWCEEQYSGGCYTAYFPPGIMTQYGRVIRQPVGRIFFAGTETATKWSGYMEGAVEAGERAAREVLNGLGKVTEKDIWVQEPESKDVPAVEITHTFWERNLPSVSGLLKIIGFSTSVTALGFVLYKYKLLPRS

[2] = target: T2, Amine oxidase [flavin-containing] B (Bos taurus, UniProt P56560); assay: Tested for inhibition- binding affinity against monoamine oxidase B catalyzed oxidation.; conditions: read-out: kon (M-1-s-1)
T2 sequence (P56560 whole entry): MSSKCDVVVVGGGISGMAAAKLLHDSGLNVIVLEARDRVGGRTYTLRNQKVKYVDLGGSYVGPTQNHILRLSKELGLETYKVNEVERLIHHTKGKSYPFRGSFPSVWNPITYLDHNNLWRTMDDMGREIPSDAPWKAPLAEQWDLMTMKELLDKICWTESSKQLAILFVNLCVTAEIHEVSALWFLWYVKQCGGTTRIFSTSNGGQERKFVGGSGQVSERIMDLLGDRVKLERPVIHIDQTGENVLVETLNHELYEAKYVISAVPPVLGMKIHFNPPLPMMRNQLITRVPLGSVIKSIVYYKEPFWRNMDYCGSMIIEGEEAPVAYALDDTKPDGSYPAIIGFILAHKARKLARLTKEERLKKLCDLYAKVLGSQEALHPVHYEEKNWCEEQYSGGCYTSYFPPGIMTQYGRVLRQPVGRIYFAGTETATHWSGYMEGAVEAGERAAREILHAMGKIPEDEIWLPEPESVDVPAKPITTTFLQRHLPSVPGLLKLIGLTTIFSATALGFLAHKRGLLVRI

SMILES	kon [1] [M⁻¹ s⁻¹]	kon [2] [M⁻¹ s⁻¹]
C1=C(c2ccccc2-c2ccccc2)CCN(C2CC2)C1	220000	–
C1=C(c2ccccc2)CCN(C2CC2)C1	50000	180000
C1=C(c2ccc3ccccc3c2)CCN(C2CC2)C1	380000	150000
C1=C(c2cccc(-c3ccccc3)c2)CCN(C2CC2)C1	680000	440000
C1=C(c2cccc3ccccc23)CCN(C2CC2)C1	400000	110000
